Laboratory results taken from ChEMBL document CHEMBL1201862, “PubChem BioAssay data set” (2004).
Active and inactive are the calls of the source.

What was measured:
[1] = target: Glyceraldehyde-3-phosphate dehydrogenase (Homo sapiens, UniProt P04406)
[2] = target: T1, Alkaline phosphatase, tissue-nonspecific isozyme (Homo sapiens, UniProt P05186); assay: potency against alkaline phosphatase TNAP – biochemical, luminescent, dose response, SAR follow-up (AID 1056)
T1 sequence (P05186 whole entry): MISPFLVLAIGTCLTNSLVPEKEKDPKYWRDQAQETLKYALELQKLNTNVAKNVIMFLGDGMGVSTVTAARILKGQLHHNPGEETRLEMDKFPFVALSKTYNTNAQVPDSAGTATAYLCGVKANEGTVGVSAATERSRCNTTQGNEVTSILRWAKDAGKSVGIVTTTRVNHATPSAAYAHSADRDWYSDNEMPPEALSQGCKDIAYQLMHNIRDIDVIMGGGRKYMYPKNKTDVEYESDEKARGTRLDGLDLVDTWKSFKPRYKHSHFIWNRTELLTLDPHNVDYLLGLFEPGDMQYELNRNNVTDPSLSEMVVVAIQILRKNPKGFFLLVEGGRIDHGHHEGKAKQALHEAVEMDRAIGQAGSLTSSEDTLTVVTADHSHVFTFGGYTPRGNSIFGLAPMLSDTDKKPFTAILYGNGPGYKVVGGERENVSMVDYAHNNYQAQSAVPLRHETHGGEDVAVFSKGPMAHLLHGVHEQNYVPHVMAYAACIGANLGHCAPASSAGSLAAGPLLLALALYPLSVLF

Bcl-2-related protein A1 = target: T2, Bcl-2-related protein A1 (Mus musculus, UniProt Q07440); type: functional;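 also: confirmatory dose–response counterscreen on Bfl-1, used to check hits from a UBC13 polyubiquitin inhibitor campaign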
T2 sequence (Q07440 whole entry): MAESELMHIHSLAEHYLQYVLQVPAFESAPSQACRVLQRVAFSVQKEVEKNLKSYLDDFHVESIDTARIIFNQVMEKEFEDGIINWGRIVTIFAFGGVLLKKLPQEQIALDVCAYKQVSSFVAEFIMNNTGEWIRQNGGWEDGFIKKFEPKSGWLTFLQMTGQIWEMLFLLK

[3] = target: T3, Ubiquitin-conjugating enzyme E2 N (Homo sapiens, UniProt P61088); type: functional
T3 sequence (P61088 whole entry): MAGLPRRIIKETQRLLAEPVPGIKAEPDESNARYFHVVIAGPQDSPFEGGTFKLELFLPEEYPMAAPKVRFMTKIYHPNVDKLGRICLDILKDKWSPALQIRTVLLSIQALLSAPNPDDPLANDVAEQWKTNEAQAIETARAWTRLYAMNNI

[4] = target: T3, Ubiquitin-conjugating enzyme E2 N; type: functional; remark: listed apart in the source
SUMO-activating enzyme [5] = target: T4, SUMO-activating enzyme (Homo sapiens, UniProt Q9UBT2); assay: blockers of UBC9-mediated SUMO conjugation – biochemical, AlphaScreen, SUMOylation inhibitor project, confirmation (AID 2018); type: functional
T4 sequence (Q9UBE0 whole entry): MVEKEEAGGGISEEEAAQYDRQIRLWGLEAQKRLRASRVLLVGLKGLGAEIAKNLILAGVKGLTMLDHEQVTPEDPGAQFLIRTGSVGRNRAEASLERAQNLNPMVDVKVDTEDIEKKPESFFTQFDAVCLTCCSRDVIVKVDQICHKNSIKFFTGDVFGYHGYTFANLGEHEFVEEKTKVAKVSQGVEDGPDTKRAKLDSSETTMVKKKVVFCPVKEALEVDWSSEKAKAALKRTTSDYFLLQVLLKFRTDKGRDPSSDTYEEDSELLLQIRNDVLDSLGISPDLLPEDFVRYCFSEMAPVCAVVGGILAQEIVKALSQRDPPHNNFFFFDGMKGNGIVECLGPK
T4 sequence (Q9UBT2 whole entry): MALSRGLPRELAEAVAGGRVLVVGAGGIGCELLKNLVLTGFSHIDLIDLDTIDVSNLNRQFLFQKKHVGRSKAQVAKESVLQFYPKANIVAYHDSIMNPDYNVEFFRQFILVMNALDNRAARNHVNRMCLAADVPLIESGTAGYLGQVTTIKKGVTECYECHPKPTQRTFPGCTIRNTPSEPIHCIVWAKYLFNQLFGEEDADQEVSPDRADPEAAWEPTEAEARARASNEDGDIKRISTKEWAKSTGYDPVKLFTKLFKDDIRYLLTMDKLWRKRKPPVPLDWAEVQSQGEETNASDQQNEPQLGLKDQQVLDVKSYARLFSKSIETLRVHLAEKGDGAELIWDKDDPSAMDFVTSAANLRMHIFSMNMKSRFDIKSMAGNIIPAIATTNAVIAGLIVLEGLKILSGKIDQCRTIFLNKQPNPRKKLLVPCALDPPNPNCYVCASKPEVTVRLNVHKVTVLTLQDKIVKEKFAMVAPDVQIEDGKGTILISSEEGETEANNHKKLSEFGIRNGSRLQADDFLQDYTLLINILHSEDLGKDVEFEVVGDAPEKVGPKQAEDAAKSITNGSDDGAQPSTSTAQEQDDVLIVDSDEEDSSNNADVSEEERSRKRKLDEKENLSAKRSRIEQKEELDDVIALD

SUMO-activating enzyme [6] = target: T4, SUMO-activating enzyme; assay: blockers of SAE1/SAE2–UBC9 SUMO transfer – biochemical, HTRF, uHTS, primary screen (AID 2006); type: protein-complex assay
[7] = target: T5, Heat shock factor protein 1 (Mus musculus, UniProt P38532); assay: enhancement of HSF1-driven luciferase signal – cell-based, NIH3T3, luminescence, dose retest, confirmation (AID 435004); type: functional;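 also: stress induced by proteasome inhibitor MG132 added 30 min after compound; luciferase reporter driven by HSF1 response element in NIH3T3 cells; actives raise luminescence as potentiators of the MG132 stress response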
T5 sequence (P38532 whole entry): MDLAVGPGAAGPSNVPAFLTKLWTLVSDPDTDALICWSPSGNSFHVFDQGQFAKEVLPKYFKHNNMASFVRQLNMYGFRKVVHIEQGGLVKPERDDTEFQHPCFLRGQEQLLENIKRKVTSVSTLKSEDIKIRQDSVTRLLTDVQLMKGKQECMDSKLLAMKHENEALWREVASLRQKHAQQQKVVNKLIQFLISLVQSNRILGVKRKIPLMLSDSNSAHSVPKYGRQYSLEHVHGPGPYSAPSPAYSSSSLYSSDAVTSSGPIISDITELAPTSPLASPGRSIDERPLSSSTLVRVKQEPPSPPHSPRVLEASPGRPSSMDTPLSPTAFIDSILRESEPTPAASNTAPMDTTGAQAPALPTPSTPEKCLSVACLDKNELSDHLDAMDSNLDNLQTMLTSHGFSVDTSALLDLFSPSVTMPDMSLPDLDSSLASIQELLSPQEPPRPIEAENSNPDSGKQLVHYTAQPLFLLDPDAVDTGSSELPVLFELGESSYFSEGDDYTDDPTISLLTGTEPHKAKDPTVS

[8] = target: T6, Carboxy-terminal domain RNA polymerase II polypeptide A small phosphatase 1 (Homo sapiens, UniProt Q9GZU7); assay: CTDSP1 inhibitors, concentration-response, biochemical, absorbance readout, ultra-high-throughput screen actives (AID 540297); type: functional
T6 sequence (Q9GZU7 whole entry): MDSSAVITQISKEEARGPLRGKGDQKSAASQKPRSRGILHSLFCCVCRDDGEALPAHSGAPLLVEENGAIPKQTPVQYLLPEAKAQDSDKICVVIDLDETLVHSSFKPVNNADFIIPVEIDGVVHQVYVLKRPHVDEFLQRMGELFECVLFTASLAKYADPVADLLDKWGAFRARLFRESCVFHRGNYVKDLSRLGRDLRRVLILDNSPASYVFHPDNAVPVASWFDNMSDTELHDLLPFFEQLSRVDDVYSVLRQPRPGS

cells [9] = type: functional, cell-based
cells [10] = type: functional, cell-based; remark: listed apart in the source
[11] = THP-1 cell cytotoxicity, dose response, cytotoxicity control for non-replicating M. tuberculosis project (AID 489025); type: functional
[12] = HepG2 cell cytotoxicity, dose response, cytotoxicity control for non-replicating M. tuberculosis project (AID 489018); type: functional; details: Mycobacterium tuberculosis
[13] = Vero E6 cell cytotoxicity, dose response, cytotoxicity control for non-replicating M. tuberculosis project, secondary assay (AID 492998); type: functional, VeroE6; details: Vero C1008
[14] = target: Eukaryotic translation initiation factor 4E (Mus musculus, UniProt P63073); assay: blockers of eIF4G binding by eIF4E – biochemical, TR-FRET, dose response (AID 855); type: functional;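 also: potency for disrupting eIF4E binding to eIF4GI seen as loss of FRET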
Chain of Eukaryotic translation initiation factor 4E (P63073 whole entry): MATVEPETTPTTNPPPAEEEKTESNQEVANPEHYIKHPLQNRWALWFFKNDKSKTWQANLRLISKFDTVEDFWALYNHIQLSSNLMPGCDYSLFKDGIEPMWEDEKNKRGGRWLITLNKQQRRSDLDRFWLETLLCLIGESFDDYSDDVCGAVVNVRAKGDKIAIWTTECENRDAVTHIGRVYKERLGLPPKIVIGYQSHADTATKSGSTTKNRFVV

[15] = target: Induced myeloid leukemia cell differentiation protein Mcl-1 (Homo sapiens, UniProt Q07820); type: functional
Chain of Induced myeloid leukemia cell differentiation protein Mcl-1 (Q07820 whole entry): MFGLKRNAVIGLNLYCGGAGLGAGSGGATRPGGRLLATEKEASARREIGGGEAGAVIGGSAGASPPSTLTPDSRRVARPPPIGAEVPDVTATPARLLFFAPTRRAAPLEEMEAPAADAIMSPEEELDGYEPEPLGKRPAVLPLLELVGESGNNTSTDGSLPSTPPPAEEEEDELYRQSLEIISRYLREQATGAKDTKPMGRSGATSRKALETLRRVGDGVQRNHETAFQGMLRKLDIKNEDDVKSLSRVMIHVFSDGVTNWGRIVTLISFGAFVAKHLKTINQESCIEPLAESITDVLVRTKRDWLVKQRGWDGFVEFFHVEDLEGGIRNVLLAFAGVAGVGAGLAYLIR

[16] = target: T7, Replicative DNA helicase DnaB (Mycobacterium tuberculosis, UniProt P9WMR3); assay: DnaB intein splicing inhibitors, dose response, biochemical, cell-free fluorescence (AID 449749); type: functional
T7 sequence (P9WMR3 whole entry): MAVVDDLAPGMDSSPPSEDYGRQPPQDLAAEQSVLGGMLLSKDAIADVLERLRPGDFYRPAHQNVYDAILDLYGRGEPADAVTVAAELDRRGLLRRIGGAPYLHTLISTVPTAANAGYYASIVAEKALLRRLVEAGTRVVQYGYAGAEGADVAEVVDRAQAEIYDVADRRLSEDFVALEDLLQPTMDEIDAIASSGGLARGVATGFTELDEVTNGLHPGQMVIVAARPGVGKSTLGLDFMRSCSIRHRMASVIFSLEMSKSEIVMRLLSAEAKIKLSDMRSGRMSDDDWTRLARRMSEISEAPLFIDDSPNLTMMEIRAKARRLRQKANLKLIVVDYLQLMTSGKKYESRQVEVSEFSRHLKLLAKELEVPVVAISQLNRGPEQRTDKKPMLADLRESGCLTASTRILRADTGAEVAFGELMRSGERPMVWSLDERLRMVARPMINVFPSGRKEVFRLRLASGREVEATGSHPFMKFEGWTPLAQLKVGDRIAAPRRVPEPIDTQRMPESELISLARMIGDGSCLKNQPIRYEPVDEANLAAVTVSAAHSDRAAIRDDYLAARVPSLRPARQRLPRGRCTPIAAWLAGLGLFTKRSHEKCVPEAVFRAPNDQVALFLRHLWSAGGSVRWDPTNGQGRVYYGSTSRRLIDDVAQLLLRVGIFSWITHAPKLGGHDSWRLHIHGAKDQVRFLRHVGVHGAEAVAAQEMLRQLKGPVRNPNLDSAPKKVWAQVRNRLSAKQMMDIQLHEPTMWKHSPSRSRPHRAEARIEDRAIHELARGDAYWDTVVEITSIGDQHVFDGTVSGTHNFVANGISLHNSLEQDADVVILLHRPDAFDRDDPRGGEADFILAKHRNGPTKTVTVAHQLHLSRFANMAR

Protein RecA = target: T8, Protein RecA (Mycobacterium tuberculosis, UniProt P9WHJ3); assay: Fluorescence Cell-Free Homogeneous Dose Retest to Identify Inhibitors of RecA-Intein Splicing Activity. [Related pubchem assays (depositor defined):AID2097, AID2223, AID489010, AID492950]; type: functional
T8 sequence (P9WHJ3 whole entry): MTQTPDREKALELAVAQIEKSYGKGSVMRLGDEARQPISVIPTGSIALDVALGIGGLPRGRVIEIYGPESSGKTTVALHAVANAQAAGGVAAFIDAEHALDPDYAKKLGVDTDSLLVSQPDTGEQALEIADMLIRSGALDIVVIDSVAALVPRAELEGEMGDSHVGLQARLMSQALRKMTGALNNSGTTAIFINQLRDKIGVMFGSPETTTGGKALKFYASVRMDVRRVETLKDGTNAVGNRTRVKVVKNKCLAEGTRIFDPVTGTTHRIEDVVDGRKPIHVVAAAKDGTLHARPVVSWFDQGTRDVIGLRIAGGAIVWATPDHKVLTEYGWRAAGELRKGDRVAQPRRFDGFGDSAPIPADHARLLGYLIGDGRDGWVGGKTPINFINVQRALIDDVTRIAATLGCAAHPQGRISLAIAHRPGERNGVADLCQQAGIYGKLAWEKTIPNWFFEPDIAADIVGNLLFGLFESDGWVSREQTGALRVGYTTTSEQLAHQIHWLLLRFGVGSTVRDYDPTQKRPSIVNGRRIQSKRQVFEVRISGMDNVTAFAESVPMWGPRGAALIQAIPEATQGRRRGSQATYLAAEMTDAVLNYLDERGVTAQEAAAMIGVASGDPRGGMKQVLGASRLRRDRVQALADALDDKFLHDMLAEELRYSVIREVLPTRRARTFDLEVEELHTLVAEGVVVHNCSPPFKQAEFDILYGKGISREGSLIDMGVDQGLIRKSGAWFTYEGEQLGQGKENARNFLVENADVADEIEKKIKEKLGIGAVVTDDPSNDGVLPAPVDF

[17] = target: T9, DNA repair protein RAD52 homolog (Homo sapiens, UniProt P43351); type: functional, biochemical
T9 sequence (P43351 whole entry): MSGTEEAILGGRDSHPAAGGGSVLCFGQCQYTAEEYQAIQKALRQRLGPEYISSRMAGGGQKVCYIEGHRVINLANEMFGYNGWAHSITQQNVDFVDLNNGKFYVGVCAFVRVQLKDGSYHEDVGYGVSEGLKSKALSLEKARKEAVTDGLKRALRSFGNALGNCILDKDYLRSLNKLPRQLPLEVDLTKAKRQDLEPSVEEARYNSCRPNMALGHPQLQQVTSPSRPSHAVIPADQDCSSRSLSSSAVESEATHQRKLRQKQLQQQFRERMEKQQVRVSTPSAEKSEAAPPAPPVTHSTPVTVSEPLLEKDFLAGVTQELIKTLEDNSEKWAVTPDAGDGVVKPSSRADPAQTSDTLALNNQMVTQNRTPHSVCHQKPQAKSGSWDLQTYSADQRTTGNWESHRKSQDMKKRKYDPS

[18] = viability of uninfected HEp-2 cells – cell-based, HTS, cytotoxicity control for RSV inhibitor project, dose response (AID 2410); type: functional; details: human respiratory syncytial virus

Chain of Glyceraldehyde-3-phosphate dehydrogenase (P04406 whole entry): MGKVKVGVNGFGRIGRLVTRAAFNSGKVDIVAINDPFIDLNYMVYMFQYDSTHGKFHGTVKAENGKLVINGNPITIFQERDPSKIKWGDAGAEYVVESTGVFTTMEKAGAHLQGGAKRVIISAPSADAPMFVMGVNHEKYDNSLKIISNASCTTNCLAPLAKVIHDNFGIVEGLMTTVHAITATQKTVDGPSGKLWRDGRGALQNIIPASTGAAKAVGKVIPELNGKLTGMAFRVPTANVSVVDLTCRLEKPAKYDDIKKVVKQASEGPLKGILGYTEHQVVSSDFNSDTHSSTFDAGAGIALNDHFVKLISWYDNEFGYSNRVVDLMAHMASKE

O=S(=O)(Nc1ccncn1)c1ccccc1
IC50 [1]: > 100 µM (not active)
IC50 [2]: > 100 µM (inactive)

Cc1ccccc1C(=O)N1CCN(c2ccc(NC(=S)NC(=O)c3cccs3)cc2)CC1
IC50 (Bcl-2-related protein A1): > 20 µM (inactive)
IC50 [3]: 10.8 µM (active)
IC50 [4]: 15.6 µM (active)

O=C(N/N=C/c1ccc(-c2cccc([N+](=O)[O-])c2)o1)c1ccccc1O
IC50 (SUMO-activating enzyme [5]): 16.3 µM (active)
IC50 (SUMO-activating enzyme [6]): 15.9 µM (active)
EC50 [7]: > 260 µM (inactive)
IC50 [8]: 3.68 µM (active)

CC(OC(=O)c1cc(-c2ccc(Br)cc2)[nH]n1)C(=O)NC(C)(C)C (stereo unspecified)
IC50 [1]: > 100 µM (not active)
IC50 [2]: 19.5 µM (active)

O=C(CCc1ccccc1)N/N=C/c1cc(Br)ccc1O
EC50 (cells [9]): 286 µM (active)
EC50 (cells [10]): 261 µM (active)
CC50 [11]: 6.36 µM (active)
CC50 [12]: 13.5 µM (active)
CC50 [13]: 12.3 µM (active)

O=C(N/N=C/c1ccc([N+](=O)[O-])o1)c1cc2c(ccc3ccccc32)o1
IC50 (SUMO-activating enzyme [5]): 28.4 µM (active)
IC50 (SUMO-activating enzyme [6]): 11 µM (active)
IC50 [14]: 50 µM (inactive)

CCC(OCC(O)CN1CCN(CCN2C(=O)c3cccc4cccc(c34)C2=O)CC1)c1ccccc1 (stereo unspecified)
IC50 (Bcl-2-related protein A1): > 20 µM (inactive)
IC50 [3]: 12.4 µM (active)
IC50 [4]: 9.26 µM (active)

COC(=O)c1cc(-c2ccc(OC)cc2)[nH]n1
IC50 [1]: > 100 µM (not active)
IC50 [2]: 2.33 µM (active)

Nc1ccc(N)c(C(=O)O)c1
IC50 [15]: 1.59 µM (active)
IC50 [14]: 13.4 µM (active)
AC50 [16]: 6.81 µM (active)
EC50 (Protein RecA): 3.76 µM (active)

CN1CCN(CCCNC(=O)c2ccc(/C=C3\Sc4ccccc4N(Cc4ccc(F)cc4)C3=O)cc2)CC1
IC50 [14]: 50 µM (inactive)
AC50 [17]: 8.2 µM (active)

Cc1ccc(C2=NN(C(=O)CCC(=O)O)C(c3cn(-c4ccccc4)nc3-c3ccc(C)cc3)C2)cc1 (stereo unspecified)
CC50 [18]: 24.8 µM (active)
IC50 (SUMO-activating enzyme [5]): 4.8 µM (active)
IC50 (SUMO-activating enzyme [6]): 20.1 µM (active)

COc1ccc(Cn2c(SCC(=O)NCc3ccco3)nc3ccsc3c2=O)cc1
IC50 (Bcl-2-related protein A1): > 20 µM (inactive)
IC50 [3]: 10.4 µM (active)
IC50 [4]: 14.4 µM (active)
